Values joined by “and” are separate entries in the source; they are usually repeats but may differ in a detail not shown here. Equal values may be shown once.

What all share (assay type): cell-based, human
The test system of test [1] is MCF-10A cells. The test is described as follows: MTT viability assay, normal breast epithelial cells. The conditions noted are these: for IC50: Homo sapiens, MCF-10A, MTT, 24 h; for SIMCF-7 (selectivity index): IC50 MCF-10A/IC50 MCF-7; for SIMDA-MB-231 (selectivity index): IC50 MCF-10A/IC50 MDA-MB-231. The protocol:
Human breast cancer cells, i.e., MCF-7 (estrogen-dependent breast cancer cells) and MDA-MB-231 (estrogen-independent breast cancer cells), as well as normal human breast epithelial cells (MCF-10A) were purchased from the American Type Culture Collection (ATCC, Manassas, VA, USA). MCF-7 and MDA-MB-231 cells were cultured in DMEM (Sigma Aldrich, St. Louis, MO, USA) supplemented with 10% fetal bovine serum (FBS), penicillin (100 U/mL) and streptomycin (100 μg/mL). MCF-10A cells were cultured in Mammary Epithelial Cell Growth Medium supplemented with BPE, hEGF, insulin, hydrocortisone, GA-1000 (Lonza, Basel, Switzerland), 10% fetal bovine serum (FBS), penicillin (100 U/mL) and streptomycin (100 μg/mL). The cells were grown in T25 Cell Culture EasyFlask (Nunc, Roskilde, Denmark) at 37 °C in a humidified atmosphere of 5% CO2.
MTT assays were performed to evaluate the cytotoxic activity of the investigated compounds (1–3) against MCF-10A cells. Asuspension of cells (1 × 10^5 cells/mL) was distributed onto 96-well plates at a volume of 100 μL/well. After attachment, the cells were treated with increased concentrations of the tested compounds in medium containing 2% FBS, and incubated for 24 h. Then, 15 μL of MTT working solution (5 mg/mL in PBS) was added to each well and the plates were incubated for 3 h. Subsequently, 100 μL of 10% SDS solution was added to each well in order to dissolve the formazan formed. After overnight incubation at 37 °C, the absorbance of the obtained solution was measured at λ= 570 nm using a microplate reader (Epoch, BioTek Instruments, Inc., Winooski, VT, USA). At least two independent experiments were performed in triplicate. IC50 values of the tested compounds were calculated using the IC50 online calculator [27].

In test [2] the test system is MCF-7 cells. The test is described as follows: Annexin V/propidium iodide flow cytometry (apoptosis), MCF-7. The conditions noted are these: MCF-7, 24 h, concentration not given. From the text:
(§1) Flow cytometry analyses for apoptosis induction by the compounds 1–3 and etoposide wereperformedusing an FITC Annexin V Apoptosis Detection Kit II (BD Pharmingen, San Diego, CA, USA). The rationale of the assay is based on the externalization of phosphatidylserine on the surface of apoptotic cells. In early and late apoptotic cells, the phosphatidylserine translocates into the outer layer of the membrane, which allows annexin V-FITC to attach. Propidium iodide (PI) is, in turn, a fluorescent dye that penetrates into the late apoptotic and necrotic cells with impaired cell membrane integrity. Therefore, using annexin V and PI, it is possible to distinguish four groups of cells: living cells, early apoptotic cells, late apoptotic cells and necrotic cells. MCF-7 and MDA-MB-231 cells were incubated with 10 and 20 µg/mL of compounds 1–3 and etoposide (reference drug) for 24 h. After incubation, the cells were dyed with FITC-labeled annexin V and PI. The analysis was performed on a BD FACS Canto II flow cytometer using FACSDiva software (version 6.1.3, BD Biosciences Systems, San Diego, CA, USA). The equipment was calibrated with BD Cytometer Setup and Tracking Beads (BDBiosciences, San Diego, CA, USA).

The subject of test [3] is MDA-MB-231 cells. The test is described as follows: Annexin V/propidium iodide flow cytometry (apoptosis), MDA-MB-231. The conditions noted are these: MDA-MB-231, 24 h, concentration not given.
Source text: as §1

On to `O=C(NNC(=S)Nc1ccc(/N=N/c2ccccc2)cc1)c1ccccc1[N+](=O)[O-]` [Compound 3], for which, in test [1], the IC50 was 40.5 µg/mL and 96.2 µM; the “SIMCF-7 (selectivity index)” value turned out to be 5.30; the “SIMDA-MB-231 (selectivity index)” value was determined as 3.86. The compound also registered an apoptotic cells in test [2] of around 68%.
Take `O=C(Cc1cccc2ccccc12)NNC(=S)Nc1ccc(/N=N/c2ccccc2)cc1` [Compound 2]: in test [1], the IC50 is 42.7 µg/mL and 97.2 µM; the “SIMCF-7 (selectivity index)” value was 4.65; the “SIMDA-MB-231 (selectivity index)” value came to 5.60. The same compound registered an apoptotic cells in test [3] of 70%.

The values are drawn from paper PMC10051798, “Thiosemicarbazide Derivatives Targeting Human TopoIIα and IDO-1 as Small-Molecule Drug Candidates for Breast Cancer Treatment” (International Journal of Molecular Sciences, 2023).
